In US9809602B2, “Compounds for treating viral infections” (INSTITUT PASTEUR KOREA, priority 2014, dated 2017):

Test system: genotype 1/2 chimeric cell culture derived HCV (HCVcc)
Experiment: Genotype 1/2 chimeric HCVcc assay (nano-luciferase, HCV replication)
Assay type: cell-based
Conditions: Hepatitis C virus, Huh7.5, 72 h
In short: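 EC50 (replication, nano-luciferase) and CC50 (viability, cellular ATP) were determined by non-linear regression 72 h after infection with a reporter HCVcc chimera carrying genotype 1a structural and 2a JFH-1 non-structural proteins. Compound was applied to Huh-7.5 cells 2 h before inoculation.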

Row | Compound | EC50 [nM]
1 | CC1CCc2c(sc(NC(=O)NCc3c(-n4cccc4)sc4c3CCN(C)C4)c2C(=O)OC(C)(C)C)C1 (stereo not drawn) [Compound 210] | < 100
2 | CCN1CCc2c(sc(-n3cccc3)c2CNC(=O)Nc2sc3c(c2C(=O)OC(C)(C)C)CCC(C)C3)C1 (stereo not drawn) [Compound 211] | < 100
3 | CC1CCc2c(sc(NC(=O)NCc3c(C(F)(F)F)sc4c3CCNC4)c2C(=O)OC(C)(C)C)C1 (stereo not drawn) [Compound 212] | < 100
4 | CC1CCc2c(sc(NC(=O)NCc3c(Br)sc4c3CCNC4)c2C(=O)OC(C)(C)C)C1 (stereo not drawn) [Compound 213] | < 100
5 | CCOC(=O)c1c(NC(=O)NCc2c(C(F)(F)F)sc(CN(C)C)c2C)sc2c1CCCC2 [Compound 214] | < 100
6 | Cc1sc(NC(=O)NCc2c(-n3cccc3)sc3c2CCNC3)c(C(=O)OC(C)C)c1C [Compound 215] | < 100
7 | Cc1sc(NC(=O)NCc2c(Br)sc3c2CCNC3)c(C(=O)OC(C)C)c1C [Compound 216] | < 100
8 | Cc1sc(NC(=O)NCc2c(C(F)(F)F)sc3c2CCNC3)c(C(=O)OC(C)C)c1C [Compound 217] | < 100
9 | CCOC(=O)c1c(NC(=O)NCc2c(Br)sc3c2CCNC3)sc2c1CCC(F)(F)C2 [Compound 218] | < 100
10 | CCOC(=O)c1c(NC(=O)NCc2c(C(F)(F)F)sc3c2CCNC3)sc2c1CCC(F)(F)C2 [Compound 219] | < 100
11 | O=C(NCc1c(-n2cccc2)sc2c1CCNC2)Nc1sc2c(c1C(=O)OC1CCCC1)CCCC2 [Compound 220] | < 100
12 | CN1CCc2c(sc(-n3cccc3)c2CNC(=O)Nc2sc3c(c2C(=O)OC2CCCC2)CCCC3)C1 [Compound 221] | < 100
13 | CCN1CCc2c(sc(-n3cccc3)c2CNC(=O)Nc2sc3c(c2C(=O)OC2CCCC2)CCCC3)C1 [Compound 222] | < 100
14 | COC(=O)c1c(NC(=O)NCc2c(C(F)(F)F)sc3c2CC[N+](C)(C)C3)sc2c1CCCC2 [Compound 223] | 1000 to 10000
15 | CC(C)(C)OC(=O)c1c(NC(=O)NCc2c(Br)sc3c2CCNC3)sc2c1CCC2 [Compound 224] | < 100
16 | CC(C)(C)OC(=O)c1c(NC(=O)NCc2c(Br)sc3c2CCNC3)sc2c1CCCCC2 [Compound 225] | < 100
17 | CC(C)OC(=O)c1c(NC(=O)NCc2c(-c3ccccc3)sc3c2CCNC3)sc2c1CCCC2 [Compound 226] | < 100
18 | CC(C)(C)OC(=O)c1c(NC(=O)NCc2c(-c3ccccc3F)sc3c2CCNC3)sc2c1CCCC2 [Compound 227] | 100 to 1000
19 | COc1cccc(-c2sc3c(c2CNC(=O)Nc2sc4c(c2C(=O)OC(C)(C)C)CCCC4)CCNC3)c1 [Compound 228] | 100 to 1000
20 | CC(C)(C)OC(=O)c1c(NC(=O)NCc2c(-c3cccc(C#N)c3)sc3c2CCNC3)sc2c1CCCC2 [Compound 229] | 100 to 1000
21 | CN(C)c1cccc(-c2sc3c(c2CNC(=O)Nc2sc4c(c2C(=O)OC(C)(C)C)CCCC4)CCNC3)c1 [Compound 230] | 1000 to 10000
22 | CC1CCc2sc(NC(=O)NCc3c(-n4cccc4)sc4c3CCN(C)C4)c(C(=O)OC(C)(C)C)c2C1 (stereo not drawn) [Compound 231] | < 100
23 | CCN1CCc2c(sc(-n3cccc3)c2CNC(=O)Nc2sc3c(c2C(=O)OC(C)(C)C)CC(C)CC3)C1 (stereo not drawn) [Compound 232] | < 100
24 | CC1CCc2sc(NC(=O)NCc3c(C(F)(F)F)sc4c3CCNC4)c(C(=O)OC(C)(C)C)c2C1 (stereo not drawn) [Compound 233] | < 100

Row | Compound | EC50 [nM]
25 | CC1CCc2sc(NC(=O)NCc3c(Br)sc4c3CCNC4)c(C(=O)OC(C)(C)C)c2C1 (stereo not drawn) [Compound 234] | < 100
26 | O=C(NCc1c(C(F)(F)F)sc2c1CCNC2)Nc1sc2c(c1C(=O)OC1CCCC1)CCCC2 [Compound 235] | < 100
27 | CN1CCc2c(sc(-n3cccc3)c2CNC(=O)Nc2sc3c(c2C(=O)OC(C)(C)C)CCOC3)C1 [Compound 236] | < 100
28 | CCN1CCc2c(sc(-n3cccc3)c2CNC(=O)Nc2sc3c(c2C(=O)OC(C)(C)C)CCOC3)C1 [Compound 237] | < 100
29 | CC(C)(C)OC(=O)c1c(NC(=O)NCc2c(C(F)(F)F)sc3c2CCNC3)sc2c1CCOC2 [Compound 238] | < 100
30 | CC(C)(C)OC(=O)c1c(NC(=O)NCc2c(Br)sc3c2CCNC3)sc2c1CCOC2 [Compound 239] | < 100
31 | CC(C)(C)OC(=O)c1c(NC(=O)NCc2c(-n3cccc3)sc3c2CCN(CC(F)(F)F)C3)sc2c1CCCC2 [Compound 240] | < 100
32 | CC(C)(C)OC(=O)c1c(NC(=O)NCc2c(-n3cccc3)sc3c2CCN(CCC(F)(F)F)C3)sc2c1CCCC2 [Compound 241] | < 100
33 | CC(C)(C)OC(=O)c1c(NC(=O)NCc2c(-n3cccc3)sc3c2CCN(CCF)C3)sc2c1CCCC2 [Compound 242] | < 100
34 | CCOC(=O)c1c(NC(=O)NCc2c(-n3cccc3)sc3c2CCCNC3)sc2c1CCCC2 [Compound 243] | < 100
35 | CC(C)(C)OC(=O)c1c(NC(=O)NCc2c(C(F)(F)F)sc3c2CCNC3)sc2c1CCC2 [Compound 244] | < 100
36 | CC(C)(C)OC(=O)c1c(NC(=O)NCc2c(C(F)(F)F)sc3c2CCNC3)sc2c1CCCCC2 [Compound 245] | < 100
37 | CC(C)(C)OC(=O)c1c(NC(=O)NCc2c(-c3cc(F)cc(C(F)(F)F)c3)sc3c2CCNC3)sc2c1CCCC2 [Compound 246] | 1000 to 10000
38 | CC(C)(C)OC(=O)c1c(NC(=O)NCc2c(-c3cncc(F)c3)sc3c2CCNC3)sc2c1CCCC2 [Compound 248] | < 100
39 | CC(C)(C)OC(=O)c1c(NC(=O)NCc2c(-c3ccccc3O)sc3c2CCNC3)sc2c1CCCC2 [Compound 249] | 100 to 1000
40 | Cc1ccccc1-c1sc2c(c1CNC(=O)Nc1sc3c(c1C(=O)OC(C)(C)C)CCCC3)CCNC2 [Compound 250] | 100 to 1000
41 | Cc1sc(NC(=O)NCc2c(-c3cccc(F)c3)sc3c2CCNC3)c(C(=O)OC(C)C)c1C [Compound 251] | < 100
42 | CC(C)(C)OC(=O)c1c(NC(=O)NCc2c(-c3cccc(O)c3)sc3c2CCNC3)sc2c1CCCC2 [Compound 252] | 100 to 1000
43 | CCN1CCc2c(sc(-n3cccc3)c2CNC(=O)Nc2sc3c(c2C(=O)NN2CCN(C)CC2)CCCC3)C1 [Compound 253] | 100 to 1000
44 | CCN1CCc2c(sc(C(F)(F)F)c2CNC(=O)Nc2sc3c(c2C(=O)OC(C)(C)C)CCC3)C1 [Compound 254] | < 100
45 | CC(C)(C)OC(=O)c1c(NC(=O)NCc2c(Br)sc3c2CC[N+](C)(C)C3)sc2c1CCCCC2 [Compound 255] | < 100
46 | CC(C)(C)OC(=O)c1c(NC(=O)NCc2c(-c3ccc(O)cc3)sc3c2CCNC3)sc2c1CCCC2 [Compound 256] | 100 to 1000
47 | CC(C)(C)OC(=O)c1c(NC(=O)NCc2c(-c3ccc(C(=O)O)cc3)sc3c2CCNC3)sc2c1CCCC2 [Compound 257] | 1000 to 10000
48 | CC(C)(C)OC(=O)c1c(NC(=O)NCc2c(-n3cccc3)sc3c2CCN(CCO)C3)sc2c1CCCC2 [Compound 258] | < 100

Row | Compound | EC50 [nM]
49 | COCCN1CCc2c(sc(-n3cccc3)c2CNC(=O)Nc2sc3c(c2C(=O)OC(C)(C)C)CCCC3)C1 [Compound 259] | < 100
50 | CC(C)(C)OC(=O)c1c(NC(=O)NCc2c(-n3cccc3)sc3c2CCN(C2CCC2)C3)sc2c1CCCC2 [Compound 260] | < 100
51 | CC(C)(C)OC(=O)c1c(NC(=O)NCc2c(-n3cccc3)sc3c2CCN(C2COC2)C3)sc2c1CCCC2 [Compound 261] | < 100
52 | O=C(NCc1c(Br)sc2c1CCNC2)Nc1sc2c(c1C(=O)OC1CCCC1)CCCC2 [Compound 262] | < 100
53 | CCN1CCc2c(sc(Br)c2CNC(=O)Nc2sc3c(c2C(=O)OC2CCCC2)CCCC3)C1 [Compound 263] | < 100
54 | CCN1CCc2c(sc(Br)c2CNC(=O)Nc2sc(C)c(C)c2C(=O)OC(C)C)C1 [Compound 264] | < 100
55 | CC1CCCc2sc(NC(=O)NCc3c(C(F)(F)F)sc4c3CCNC4)c(C(=O)OC(C)(C)C)c21 (stereo not drawn) [Compound 265] | < 100
56 | CC1Cc2c(sc(NC(=O)NCc3c(C(F)(F)F)sc4c3CCNC4)c2C(=O)OC(C)(C)C)C(C)C1 (stereo not drawn) [Compound 266] | < 100
57 | CC1Cc2c(sc(NC(=O)NCc3c(Br)sc4c3CCNC4)c2C(=O)OC(C)(C)C)C(C)C1 (stereo not drawn) [Compound 267] | < 100
58 | CCc1c(C)sc(NC(=O)NCc2c(C(F)(F)F)sc3c2CCNC3)c1C(=O)OC(C)(C)C [Compound 268] | < 100
59 | CCc1c(C)sc(NC(=O)NCc2c(-n3cccc3)sc3c2CCNC3)c1C(=O)OC(C)(C)C [Compound 269] | < 100
60 | CCc1sc(NC(=O)NCc2c(C(F)(F)F)sc3c2CCNC3)c(C(=O)OC(C)(C)C)c1C [Compound 270] | < 100
61 | O=C(NCc1c(Br)sc2c1CCNC2)Nc1sc2c(c1C(=O)OC1CCCCC1)CCCC2 [Compound 271] | < 100
62 | O=C(NCc1c(C(F)(F)F)sc2c1CCNC2)Nc1sc2c(c1C(=O)OC1CCCCC1)CCCC2 [Compound 272] | < 100
63 | O=C(NCc1c(-n2cccc2)sc2c1CCNC2)Nc1sc2c(c1C(=O)OC1CCCCC1)CCCC2 [Compound 273] | < 100
64 | C=CCCOC(=O)c1c(NC(=O)NCc2c(Br)sc3c2CCNC3)sc2c1CCCC2 [Compound 274] | < 100
65 | C=CCCOC(=O)c1c(NC(=O)NCc2c(C(F)(F)F)sc3c2CCNC3)sc2c1CCCC2 [Compound 275] | < 100
66 | C=CCCOC(=O)c1c(NC(=O)NCc2c(-n3cccc3)sc3c2CCNC3)sc2c1CCCC2 [Compound 276] | < 100
67 | CC(C)(C)OC(=O)c1c(NC(=O)NCc2c(-n3cccc3)sc3c2CCNC3)sc2c1CCC2 [Compound 277] | < 100
68 | CN1CCc2c(sc(C(F)(F)F)c2CNC(=O)Nc2sc3c(c2C(=O)OC(C)(C)C)CCC3)C1 [Compound 278] | < 100
69 | CN1CCc2c(sc(Br)c2CNC(=O)Nc2sc3c(c2C(=O)OC(C)(C)C)CCCCC3)C1 [Compound 279] | < 100
70 | CCN1CCc2c(sc(Br)c2CNC(=O)Nc2sc3c(c2C(=O)OC(C)(C)C)CCCCC3)C1 [Compound 280] | < 100
71 | CN1CCc2c(sc(C(F)(F)F)c2CNC(=O)Nc2sc3c(c2C(=O)OC(C)(C)C)CCCCC3)C1 [Compound 281] | < 100
72 | CC(C)(C)OC(=O)c1c(NC(=O)NCc2c(C3CC3)sc3c2CCNC3)sc2c1CCCC2 [Compound 285] | < 100
